{"source": "patent US8541178B2", "about": "“Analysis of antibody drug conjugates by bead-based affinity capture and mass spectrometry” (Genentech, Inc., priority 2008, dated 2013)", "origin": "cited, not measured here", "details": "more cytotoxic than conventional cancer chemotherapeutic agents", "data": [{"smiles": "COc1cc2cc(c1Cl)N(C)C(=O)C[C@H](OC(=O)[C@H](C)N(C)C(C)=O)[C@]1(C)O[C@H]1[C@H](C)[C@@H]1C[C@@](O)(NC(=O)O1)[C@H](OC)/C=C/C=C(\\C)C2", "note": "[Maytansine]", "values": [{"measurement": "Cytotoxicity relative to methotrexate, daunorubicin, and vincristine", "result": "100- to 1000 fold"}]}]}
